# ChEMBL document CHEMBL5331085 (Eur J Med Chem, 2023)
# Where “and” joins values, the source holds several entries; their conditions need not be identical. Identical values can stand only once. Calls of active or inactive are those of the source. No cut-off for these calls is given here. Positions of bridges follow the written chain, without caps; N, C: chain ends. Non-standard residues stand in square brackets, D forms with d. Residues, ends and D or L forms follow the SMILES beside them. *: point of attachment. Ileψ(thiazoline)Cys = CC[C@H](C)[C@H](N)C1=N[C@H](C(=O)*)CS1; dOrn = NCCC[C@@H](N)C(=O)O
# Columns and labels:
# [1] = test system: Escherichia coli; test: Antimicrobial activity against Escherichia coli ATCC 25922 incubated for 16 to 20 hrs by CLSI based broth dilution method; type: functional; details: time 16-20 hrs
# [2] = test system: Enterococcus faecium; test: Antimicrobial activity against Enterococcus faecium ATCC 29212 incubated for 16 to 20 hrs by CLSI based broth dilution method; type: functional
# [3] = test system: Staphylococcus aureus; test: Antimicrobial activity against Staphylococcus aureus ATCC 29213 incubated for 16 to 20 hrs by CLSI based broth dilution method; type: functional; details: time 16-20 hrs
# [4] = (§1) Hemolytic activity in sheep erythrocytes incubated for 1 hr by absorbance based analysis; type: toxicity, cell-based, Ovis aries, Erythrocyte; details: sheep erythrocytes
# [5] = test system: Staphylococcus aureus; test: Antimicrobial activity against methicillin-resistant Staphylococcus aureus incubated for 16 to 20 hrs by CLSI based broth dilution method; type: functional; details: time 16-20 hrs
# [6] = test system: Staphylococcus aureus; test: Antimicrobial activity against methicillin-resistant Staphylococcus aureus infected in Kunming female mouse assessed as reduction in bacterial load in skin administered at labeled position and measured after 24 hrs; type: functional, organism-based; details: dose 5-10 mg/kg/day
# [7] = test system: Stenotrophomonas maltophilia; test: Antimicrobial activity against Stenotrophomonas maltophilia ATCC 17808 incubated for 16 to 20 hrs by CLSI based broth dilution method; type: functional; details: time 16-20 hrs
# [8] = test system: Staphylococcus aureus; test: Bactericidal activity against Staphylococcus aureus ATCC 29213 assessed as fold increase in MIC incubated for 16 to 20 hrs in presence of 50% plasma by broth dilution method relative to control; type: functional; details: time 16-20 hrs
# [9] = test system: Staphylococcus aureus; test: Bactericidal activity against Staphylococcus aureus ATCC 29213 assessed as fold increase in MIC incubated for 16 to 20 hrs in presence of 50% serum by broth dilution method relative to control; type: functional; details: time 16-20 hrs
# [10] = test system: Cell membrane; test: Induction of membrane depolarization in Staphylococcus aureus ATCC 29213 assessed as increase in fluorescence intensity at 16 ug/ml treated for 6 mins prior to compound addition and further measured for 20 mins by DiSC3-5 dye based fluorescence analysis; details: dose 16.0 µg/ml
# [11] = test system: Staphylococcus aureus; test: Induction of ROS accumulation in Staphylococcus aureus ATCC 29213 at 1 ug/ml incubated for 30 mins by DCF-DA staining based fluorescence analysis; type: functional, organism-based; details: dose 1.0 µg/ml
# [12] = test system: Staphylococcus aureus; test: Induction of ROS accumulation in Staphylococcus aureus ATCC 29213 at 0.25 to 0.5 ug/ml incubated for 30 mins by DCF-DA staining based fluorescence analysis; type: functional, organism-based; details: dose 0.25-0.5 µg/ml
# [13] = test system: Staphylococcus aureus; test: Induction of ROS accumulation in Staphylococcus aureus ATCC 29213 at 1 ug/ml incubated for 30 mins in presence of N-acetyl-L-cysteine by DCF-DA staining based fluorescence analysis; type: functional, organism-based; details: dose 1.0 µg/ml
# [14] = Cytotoxicity against HUVEC cells assessed as inhibition of cell growth incubated for 72 hrs by CCK-8 assay; type: toxicity, cell-based; details: human
# [15] = Induction of drug resistance in Staphylococcus aureus ATCC 29213 assessed as test compound MIC at sub-MIC measured after 20 days (reference value: 1 ug/ml); type: functional; details: ATCC 29213, 480 h, time 20 day
# [16] = test system: Staphylococcus aureus; test: Induction of drug resistance in Staphylococcus aureus ATCC 29213 at 0.1 times MIC measured after 20 passages; type: functional
# [17] = test system: Staphylococcus aureus; test: Antimicrobial activity against Staphylococcus aureus; type: functional
# [18] = test system: Staphylococcus aureus; test: Antibacterial activity against Staphylococcus aureus ATCC 29213 assessed as inhibition of bacterial growth at 0.5 ug/ml incubated for 16 to 18 hrs in presence of genomic DNA at 0.125 to 4 ug/ml by microplate reader analysis; type: functional, organism-based; details: dose 0.5 µg/ml, time 16-18 hrs
# [19] = test system: Erythrocyte; test: as §1; type: toxicity, cell-based, Ovis aries; details: erythrocyte, 1 h
# [20] = Cytotoxicity against human BGC cells assessed as inhibition of cell growth incubated for 72 hrs by CCK-8 assay; type: toxicity, cell-based
# [21] = Cytotoxicity against human WPMY-1 cells assessed as inhibition of cell growth incubated for 72 hrs by CCK-8 assay; type: toxicity, cell-based
# [22] = Escherichia coli, ATCC 25922, read-out: MIC
# [23] = Enterococcus faecium, ATCC 29212, time 16-20 hrs, read-out: MIC
# [24] = Staphylococcus aureus, ATCC 29213, read-out: MIC
# [25] = Stenotrophomonas maltophilia, ATCC 17808, read-out: MIC
Compound,"MIC [1, 22]","MIC [2, 23]","MIC [3, 24]",HC50 at 1 h [4],"MIC [7, 25]",further results
CC[C@H](C)[C@H](N)C1=N[C@H](C(=O)N[C@@H](CC(C)C)C(=O)N[C@H](CCC(=O)O)C(=O)N[C@H](C(=O)N[C@H]2CCCCNC(=O)[C@H](CC(N)=O)NC(=O)[C@@H](CC(=O)O)NC(=O)[C@H](Cc3cnc[nH]3)NC(=O)[C@@H](Cc3ccccc3)NC(=O)[C@H]([C@@H](C)CC)NC(=O)[C@@H](CCCN)NC2=O)[C@@H](C)CC)CS1 [BACITRACIN] ({Ileψ(thiazoline)Cys}-L[dE]IK[dOrn]I[dF]H[dD]N; lactam 4-C),> 128 µg/mL,16 µg/mL,16 µg/mL,,,
CN[C@H](CC(C)C)C(=O)N[C@H]1C(=O)N[C@@H](CC(N)=O)C(=O)N[C@H]2C(=O)N[C@H]3C(=O)N[C@H](C(=O)N[C@H](C(=O)O)c4cc(O)cc(O)c4-c4cc3ccc4O)[C@H](O)c3ccc(c(Cl)c3)Oc3cc2cc(c3O[C@@H]2O[C@H](CO)[C@@H](O)[C@H](O)[C@H]2O[C@H]2C[C@](C)(N)[C@H](O)[C@H](C)O2)Oc2ccc(cc2Cl)[C@H]1O [VANCOMYCIN],,,,> 1280 µg/mL,,MIC90 [5]: 2 µg/mL; Activity [6]: Dose-Dependent Effect
CC[C@H](C)[C@H](NC(=O)CN)C(=O)NCC(=O)N[C@@H](C)C(=O)N[C@H](C(=O)N[C@@H](CC(C)C)C(=O)N[C@@H](CCCCN)C(=O)N[C@H](C(=O)N[C@@H](CC(C)C)C(=O)N[C@H](C(=O)N[C@H](C(=O)NCC(=O)N[C@@H](CC(C)C)C(=O)N1CCC[C@H]1C(=O)N[C@@H](C)C(=O)N[C@@H](CC(C)C)C(=O)N[C@H](C(=O)N[C@@H](CO)C(=O)N[C@@H](Cc1c[nH]c2ccccc12)C(=O)N[C@H](C(=O)N[C@@H](CCCCN)C(=O)N[C@@H](CCCNC(=N)N)C(=O)N[C@@H](CCCCN)C(=O)N[C@@H](CCCNC(=N)N)C(=O)N[C@@H](CCC(N)=O)C(=O)N[C@@H](CCC(N)=O)C(N)=O)[C@@H](C)CC)[C@@H](C)CC)[C@@H](C)O)[C@@H](C)O)C(C)C)C(C)C [MELITTIN],,2 µg/mL,,,8 µg/mL,fold change (FC) [8]: >32; fold change (FC) [9]: >32; Activity [10]: Active; Activity [11]: Active; Activity [12]: inactive; Activity [13]: inactive; IC50 at 72 h [14]: 5.8 µg/mL
CCn1cc(C(=O)O)c(=O)c2cc(F)c(N3CCNCC3)cc21 [NORFLOXACIN],,,,,,MIC [15]: 64 µg/mL
GENTAMICIN,,,,,,MIC90 [5]: 2 µg/mL
C[C@@H](O)[C@H]1C(=O)N2C(C(=O)O)=C(S[C@@H]3CN[C@H](C(=O)N(C)C)C3)[C@H](C)[C@H]12 [MEROPENEM],0.063 µg/mL,,,> 1280 µg/mL,,
CC1(C)S[C@@H]2[C@H](NC(=O)[C@H](N)c3ccccc3)C(=O)N2[C@H]1C(=O)O,,,,,,Activity [16]: Active
CCCCCCN(CCCOc1ccc(-c2ccc(OCCCN(CCCCCC)C(=O)[C@@H](N)CCCCN)cc2)cc1)C(=O)[C@@H](N)CCCCN.Cl.Cl.Cl.Cl,,,,,,MIC [17]: 1 µg/mL
COLISTIN,,,,,,Activity [18]: Active
CO[C@H]1/C=C/O[C@@]2(C)Oc3c(C)c(O)c4c(O)c(c(/C=N/N5CCN(C)CC5)c(O)c4c3C2=O)NC(=O)/C(C)=C\C=C\[C@H](C)[C@H](O)[C@@H](C)[C@@H](O)[C@@H](C)[C@H](OC(C)=O)[C@@H]1C [RIFAMPIN],,,,,,MIC90 [5]: 128 µg/mL
CCCCCCN(CCCOc1ccccc1-c1ccccc1OCCCN(CCCCCC)C(=O)[C@@H](N)CCCCN)C(=O)[C@@H](N)CCCCN.Cl.Cl.Cl.Cl,,,,,,MIC [17]: 0.5 µg/mL
C[C@H]1COc2c(N3CCN(C)CC3)c(F)cc3c(=O)c(C(=O)O)cn1c23,,,,,,Activity [16]: Active
CCCCCC[N+](C)(C)CCCOc1ccc(-c2ccc(OCCC[N+](C)(C)CCCCCC)cc2)cc1.[Br-].[Br-],2 µg/mL,1 µg/mL,2 µg/mL,487 µg/mL,1 µg/mL,
CCCCCCCCCC[N+](C)(C)CCCOc1ccc2ccccc2c1-c1c(OCCC[N+](C)(C)CCCCCCCCCC)ccc2ccccc12.[Br-].[Br-],16 µg/mL,16 µg/mL,16 µg/mL,228 µg/mL,16 µg/mL,MIC [7]: 16 µg/mL; MIC [1]: 16 µg/mL; MIC ([2]; time 16-20 hrs): 16 µg/mL; MIC [3]: 16 µg/mL; HC50 [19]: 371 µg/mL
CC[C@H]1OC(=O)[C@H](C)[C@@H](O[C@H]2C[C@@](C)(OC)[C@@H](O)[C@H](C)O2)[C@H](C)[C@@H](O[C@@H]2O[C@H](C)C[C@H](N(C)C)[C@H]2O)[C@](C)(O)C[C@@H](C)C(=O)[C@H](C)[C@@H](O)[C@]1(C)O [ERYTHROMYCIN],,,,,,MIC90 [5]: 128 µg/mL
C=C[C@]1(C)C[C@@H](OC(=O)CS[C@@H]2C[C@H]3CC[C@@H](C2)N3C)[C@]2(C)[C@H](C)CC[C@]3(CCC(=O)[C@H]32)[C@@H](C)[C@@H]1O [RETAPAMULIN],,,,,,IC50 at 72 h [20]: 16 µg/mL; IC50 at 72 h [14]: 25.5 µg/mL; IC50 at 72 h [21]: 13.9 µg/mL
CCCCCC[N+](C)(C)CCCOc1ccccc1-c1ccccc1OCCC[N+](C)(C)CCCCCC.[Br-].[Br-],128 µg/mL,16 µg/mL,2 µg/mL,> 1280 µg/mL,128 µg/mL,
CCCCCCCC[N+](C)(C)CCCOc1ccc2ccccc2c1-c1c(OCCC[N+](C)(C)CCCCCCCC)ccc2ccccc12.[Br-].[Br-],2 µg/mL,2 µg/mL,2 µg/mL,28 µg/mL,2 µg/mL,MIC [7]: 2 µg/mL; MIC [1]: 2 µg/mL; MIC ([2]; time 16-20 hrs): 2 µg/mL; MIC [3]: 2 µg/mL; HC50 [19]: 20 µg/mL
CCCCCCCC[N+](C)(C)CCCOc1ccc(-c2ccc(OCCC[N+](C)(C)CCCCCCCC)cc2)cc1.[Br-].[Br-],1 µg/mL,0.5 µg/mL,1 µg/mL,83 µg/mL,2 µg/mL,
CCCCCCCCCCCC[N+](C)(C)CCCOc1ccccc1-c1ccccc1OCCC[N+](C)(C)CCCCCCCCCCCC.[Br-].[Br-],32 µg/mL,4 µg/mL,16 µg/mL,12 µg/mL,32 µg/mL,
CCCCCCCCCC[N+](C)(C)CCCOc1ccccc1-c1ccccc1OCCC[N+](C)(C)CCCCCCCCCC.[Br-].[Br-],4 µg/mL,1 µg/mL,2 µg/mL,10 µg/mL,4 µg/mL,
O=C(O)c1cn(C2CC2)c2cc(N3CCNCC3)c(F)cc2c1=O,,,,,,Activity [16]: Active
CCCCCCCC[N+](C)(C)CCCOc1ccccc1-c1ccccc1OCCC[N+](C)(C)CCCCCCCC.[Br-].[Br-],1 µg/mL,0.5 µg/mL,1 µg/mL,109 µg/mL,2 µg/mL,
CCCCCCCCCC[N+](C)(C)CCCOc1ccc(-c2ccc(OCCC[N+](C)(C)CCCCCCCCCC)cc2)cc1.[Br-].[Br-],2 µg/mL,0.5 µg/mL,1 µg/mL,18 µg/mL,2 µg/mL,
CCCCCCCC[N+](C)(C)CCCOc1cccc(-c2cccc(OCCC[N+](C)(C)CCCCCCCC)c2)c1.[Br-].[Br-],1 µg/mL,0.5 µg/mL,2 µg/mL,145 µg/mL,2 µg/mL,
CCCCCC[N+](C)(C)CCCOc1ccc2ccccc2c1-c1c(OCCC[N+](C)(C)CCCCCC)ccc2ccccc12.[Br-].[Br-],8 µg/mL,4 µg/mL,8 µg/mL,,8 µg/mL,MIC [7]: 8 µg/mL; MIC [1]: 8 µg/mL; MIC ([2]; time 16-20 hrs): 8 µg/mL; MIC [3]: 8 µg/mL; HC50 [19]: 405 µg/mL and 868 µg/mL
COc1cccc(OC)c1C(=O)N[C@@H]1C(=O)N2[C@@H]1SC(C)(C)[C@@H]2C(=O)O,,,,,,Activity [16]: Active
C[C@H]1c2cccc(O)c2C(=O)C2=C(O)[C@]3(O)C(=O)C(C(N)=O)=C(O)[C@@H](N(C)C)[C@@H]3[C@@H](O)[C@@H]21.O [DOXYCYCLINE],,,,,,MIC90 [5]: 8 µg/mL
CCCCCCCCCC[N+](C)(C)CCCOc1cccc(-c2cccc(OCCC[N+](C)(C)CCCCCCCCCC)c2)c1.[Br-].[Br-],2 µg/mL,0.5 µg/mL,1 µg/mL,19 µg/mL,2 µg/mL,
